Results reported in the supplement of paper PMC10307832.

Tests used:
Test in all cases: relative viability (nuclei count vs DMSO), 5 days (fraction); higher = more cells survive
Nelarabine + Trametinib = compound: COc1nc(N)nc2c1ncn2[C@@H]1O[C@H](CO)[C@@H](O)[C@@H]1O [Nelarabine] + CC(=O)Nc1cccc(-n2c(=O)n(C3CC3)c(=O)c3c(Nc4ccc(I)cc4F)n(C)c(=O)c(C)c32)c1 [Trametinib] (partner 0.02 µM)
Procedure, shortened: (§1)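 Cells from lung cancer lines were seeded into 1536-well plates and, one day later, dosed by pin tool. Treatments were either a single drug or a fixed dose of an anchor drug with five library-drug doses (not always all listed) in √10 steps. After 5 days, nuclei were stained in a one-step fixation (final 0.05% Triton X-100, 1% formaldehyde, 1 ug/ml Hoechst) and counted on 4× images, and relative viability is the treated-to-vehicle nuclei ratio, as the median of duplicate plates.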

Adavosertib + Olaparib = compound: C=CCn1c(=O)c2cnc(Nc3ccc(N4CCN(C)CC4)cc3)nc2n1-c1cccc(C(C)(C)O)n1 [Adavosertib] + O=C(c1cc(Cc2n[nH]c(=O)c3ccccc23)ccc1F)N1CCN(C(=O)C2CC2)CC1 [Olaparib] (partner 8 µM)
Procedure, shortened: as §1

Nelarabine + OSI-027 = compound: COc1nc(N)nc2c1ncn2[C@@H]1O[C@H](CO)[C@@H](O)[C@@H]1O [Nelarabine] + COc1cccc2cc(-c3nc([C@H]4CC[C@H](C(=O)O)CC4)n4ncnc(N)c34)[nH]c12 [OSI-027] (partner 0.5 µM)
Procedure, shortened: as §1

Nelarabine + Crizotinib = compound: COc1nc(N)nc2c1ncn2[C@@H]1O[C@H](CO)[C@@H](O)[C@@H]1O [Nelarabine] + C[C@@H](Oc1cc(-c2cnn(C3CCNCC3)c2)cnc1N)c1c(Cl)ccc(F)c1Cl [Crizotinib] (partner 1 µM)
Procedure, shortened: as §1

Cell Line	relative viability (Nelarabine + Trametinib; first compound 0.01 µM)	relative viability (Nelarabine + Trametinib; first compound 0.03162 µM)	relative viability (Nelarabine + Trametinib; first compound 0.1 µM)	relative viability (Nelarabine + Trametinib; first compound 0.3162 µM)	relative viability (Nelarabine + Trametinib; first compound 1 µM)	relative viability (Adavosertib + Olaparib; first compound 0.01 µM)	relative viability (Adavosertib + Olaparib; first compound 0.03162 µM)	relative viability (Adavosertib + Olaparib; first compound 0.1 µM)	relative viability (Adavosertib + Olaparib; first compound 0.3162 µM)	relative viability (Nelarabine + OSI-027; first compound 0.01 µM)	relative viability (Nelarabine + OSI-027; first compound 0.03162 µM)	relative viability (Nelarabine + OSI-027; first compound 0.1 µM)	relative viability (Nelarabine + OSI-027; first compound 0.3162 µM)	relative viability (Nelarabine + OSI-027; first compound 1 µM)	relative viability (Nelarabine + Crizotinib; first compound 0.03162 µM)	relative viability (Nelarabine + Crizotinib; first compound 0.1 µM)	relative viability (Nelarabine + Crizotinib; first compound 0.3162 µM)	relative viability (Nelarabine + Crizotinib; first compound 1 µM)	relative viability (Nelarabine + Crizotinib; first compound 0.01 µM)
NCI-H661	0.651	0.718	0.628	0.668	0.756	0.779	0.828	0.721	0.449	0.53	0.652	0.738	0.775	0.651	0.877	0.989	0.973	0.934	
H3255	0.713	0.706	0.619	0.651	0.806	0.604	0.522	0.667	0.583		0.653	0.637	0.585	0.456	0.821	0.906	0.881	0.913	1.04
NCI-H596	0.912	0.861	0.783	0.907	0.834	0.736	0.791	0.52	0.591	0.82	0.668	0.698	0.692	0.792	1.15	0.96	1.04	1.12	0.948
NCI-H1437	0.637	0.582	0.484	0.64	0.581	0.65	0.613	0.643	0.566	1.04	0.859	0.845	0.948	0.796	0.844	0.912	0.895	0.905	1.27
NCI-H2228	0.575	0.469	0.29	0.55	0.668		0.749	0.519	0.27	0.949	0.635		0.784	0.563	0.371		0.351	0.436	0.414
CAL-12T	0.351	0.314	0.404	0.352	0.347	0.722	0.723	0.863	0.475	0.616	0.874	0.687	0.635	0.583	0.514	0.61	0.806	0.549	0.517
LCLC-103H	0.72	0.68	0.751	0.758	0.69	0.797	0.769	0.761	0.742	0.499	0.322	0.459	0.464	0.486	1.03	1.07	1.08	1.02	1.12
NCI-H1792	0.541	0.513	0.418	0.373	0.508	0.464	0.461	0.378	0.459		0.773	0.75	0.904	1.13		1.29	1.15	1.03	0.821
NCI-H2347	0.338	0.3	0.307	0.304	0.27	0.584	0.595	0.548	0.54	0.505	0.431	0.409	0.389	0.369	0.547	0.654	0.649	0.833	0.812
